Assays:
Assay type in all cases: in vivo
Settings in all cases: 500 g a.i/ha, foliage treatment after emergence, about 14 days after treatment, score 0-5
[1] = tested on: Abutilon theophrasti (velvetleaf); experiment: Test Example-4: herbicidal effect by a foliage treatment after weeds are generated under upland field conditions
Text: (§1) Using the formulation prepared according to the methods described above, the herbicidal effect of the bicyclic pyrazolinone derivative of the invention according to the methods shown in Test Examples below was examined. The herbicidal effect with respect to the test weeds or the phytotoxicity with respect to the test crops was examined according to the following criteria, and evaluated in six stage scores of 0 to 5. A vat having an area of 65 cm^2 and a depth of 2 cm was filled with upland soil, then, seeds of Amaranthus viridis (green amaranthus), Abutilon theophrasti (velvetleaf), Chenopodium album (common lambsquarters), […]. While watering was suitably performed on there, the seeds were grown for 14 days. A wettable powder or an emulsifiable concentrate of the compound of the present invention prepared according to Formulation Example was diluted, and a spray treatment was uniformly performed on the foliage portion of the plant so as to be a predetermined dosage in the amount of water of 4000 L per hectare. The herbicidal effect with respect to the test weeds and the phytotoxicity with respect to corn about 14 days after the treatment were evaluated according to the evaluation criteria in six stages of 0 to 5 described above.

[2] = tested on: Amaranthus viridis (green amaranthus); experiment: as above
Text: as §1

[3] = tested on: Chenopodium album (common lambsquarters); experiment: as above
Text: as §1

corn = experiment: Test Example-4: phytotoxicity by a foliage treatment after weeds are generated under upland field conditions
Text: as §1

Structure (SMILES)	Herbicidal effect Abutilon theophrast [1]	Herbicidal effect Amaranthus viridis [2]	Herbicidal effect Chenopodium album [3]	Phytotoxicity Corn (corn)
CCOC(=O)COc1ccccc1Oc1cc(-c2c(Cl)n3n(c2=O)CCCC3)c(F)cc1Cl [Example 3-17]	5 (Herbicidal effect/phytotoxicity was 90% or greater)	5 (Herbicidal effect/phytotoxicity was 90% or greater)	5 (Herbicidal effect/phytotoxicity was 90% or greater)	0 (Herbicidal effect/phytotoxicity was 0% to 10%)
O=c1c(-c2cc(OC3CCCC3)c(Cl)cc2F)c(Cl)n2n1CCCCC2 [Example 1-182]	5 (Herbicidal effect/phytotoxicity was 90% or greater)	5 (Herbicidal effect/phytotoxicity was 90% or greater)	5 (Herbicidal effect/phytotoxicity was 90% or greater)	1 (Herbicidal effect/phytotoxicity was 10% to 30%)
CC(C)Oc1cccc(Oc2cc(-c3c(Cl)n4n(c3=O)CCCC4)c(F)cc2Cl)c1 [Example 3-11]	5 (Herbicidal effect/phytotoxicity was 90% or greater)	5 (Herbicidal effect/phytotoxicity was 90% or greater)	5 (Herbicidal effect/phytotoxicity was 90% or greater)	0 (Herbicidal effect/phytotoxicity was 0% to 10%)
C=C(C)COC(=O)C=C(COc1cc(-c2c(Cl)n3n(c2=O)CCCC3)c(F)cc1Cl)OCC [Example 2-30]	5 (Herbicidal effect/phytotoxicity was 90% or greater)	5 (Herbicidal effect/phytotoxicity was 90% or greater)	5 (Herbicidal effect/phytotoxicity was 90% or greater)	0 (Herbicidal effect/phytotoxicity was 0% to 10%)
COC(=O)C=C(COc1ccccc1Oc1cc(-c2c(Cl)n3n(c2=O)CCCC3)c(F)cc1Cl)OC [Example 3-23]	5 (Herbicidal effect/phytotoxicity was 90% or greater)	5 (Herbicidal effect/phytotoxicity was 90% or greater)	5 (Herbicidal effect/phytotoxicity was 90% or greater)	0 (Herbicidal effect/phytotoxicity was 0% to 10%)
CC1(COc2cc(-c3c(Cl)n4n(c3=O)CCCC4)c(F)cc2Cl)CC(c2ccccc2Cl)=NO1 (stereo not drawn) [Example 4-5]	5 (Herbicidal effect/phytotoxicity was 90% or greater)	5 (Herbicidal effect/phytotoxicity was 90% or greater)	5 (Herbicidal effect/phytotoxicity was 90% or greater)	1 (Herbicidal effect/phytotoxicity was 10% to 30%)
CCCOC(=O)C=C(COc1cc(-c2c(Cl)n3n(c2=O)CCCC3)c(F)cc1Cl)OCC (mixture of isomers) [Example 2-23]	5 (Herbicidal effect/phytotoxicity was 90% or greater)	5 (Herbicidal effect/phytotoxicity was 90% or greater)	5 (Herbicidal effect/phytotoxicity was 90% or greater)	0 (Herbicidal effect/phytotoxicity was 0% to 10%)
C#CCOc1cc(C)ccc1Oc1cc(-c2c(Cl)n3n(c2=O)CCCC3)c(F)cc1Cl [Example 3-43]	5 (Herbicidal effect/phytotoxicity was 90% or greater)	5 (Herbicidal effect/phytotoxicity was 90% or greater)	5 (Herbicidal effect/phytotoxicity was 90% or greater)	0 (Herbicidal effect/phytotoxicity was 0% to 10%)
C#CC(C)Oc1cc(-c2c(Cl)n3n(c2=O)CCCC3)ccc1Cl (stereo not drawn) [Example 1-67]	5 (Herbicidal effect/phytotoxicity was 90% or greater)	5 (Herbicidal effect/phytotoxicity was 90% or greater)	5 (Herbicidal effect/phytotoxicity was 90% or greater)	0 (Herbicidal effect/phytotoxicity was 0% to 10%)
COc1ccccc1Oc1cc(-c2c(Cl)n3n(c2=O)CCCC3)c(F)cc1Cl [Example 3-2]	5 (Herbicidal effect/phytotoxicity was 90% or greater)	5 (Herbicidal effect/phytotoxicity was 90% or greater)	5 (Herbicidal effect/phytotoxicity was 90% or greater)	2 (Herbicidal effect/phytotoxicity was 30% to 50%)
C=CCOc1cccc(Oc2cc(-c3c(Cl)n4n(c3=O)CCCC4)c(F)cc2Cl)c1 [Example 3-28]	5 (Herbicidal effect/phytotoxicity was 90% or greater)	5 (Herbicidal effect/phytotoxicity was 90% or greater)	5 (Herbicidal effect/phytotoxicity was 90% or greater)	0 (Herbicidal effect/phytotoxicity was 0% to 10%)
CCS(=O)(=O)Nc1cc(-c2c(Cl)n3n(c2=O)CCCC3)c(F)cc1Cl [Example 5-51]	5 (Herbicidal effect/phytotoxicity was 90% or greater)	5 (Herbicidal effect/phytotoxicity was 90% or greater)	5 (Herbicidal effect/phytotoxicity was 90% or greater)	0 (Herbicidal effect/phytotoxicity was 0% to 10%)
CCOC(=CC(=O)OCC(C)C)COc1cc(-c2c(Cl)n3n(c2=O)CCCC3)c(F)cc1Cl [Example 2-27]	5 (Herbicidal effect/phytotoxicity was 90% or greater)	5 (Herbicidal effect/phytotoxicity was 90% or greater)	5 (Herbicidal effect/phytotoxicity was 90% or greater)	0 (Herbicidal effect/phytotoxicity was 0% to 10%)
CCOC(=O)COc1cc(-c2c(Cl)n3n(c2=O)CCCC3)c(F)cc1Cl [Example 1-163]	5 (Herbicidal effect/phytotoxicity was 90% or greater)	5 (Herbicidal effect/phytotoxicity was 90% or greater)	5 (Herbicidal effect/phytotoxicity was 90% or greater)	0 (Herbicidal effect/phytotoxicity was 0% to 10%)
COC(=O)C=C(COc1cc(-c2c(Cl)n3n(c2=O)CCCC3)c(F)cc1Cl)OC (mixture of isomers) [Example 2-1]	5 (Herbicidal effect/phytotoxicity was 90% or greater)	5 (Herbicidal effect/phytotoxicity was 90% or greater)	5 (Herbicidal effect/phytotoxicity was 90% or greater)	1 (Herbicidal effect/phytotoxicity was 10% to 30%)

Reference: patent publication US9580444B2, “Polycyclic pyrazolinone derivative and herbicide comprising same as effective component thereof” (priority 2013, dated 2017)
